In patent US12624127B2, “Chitosan derivatives as antimicrobials and synergistic combinations thereof” (priority 2022, dated 2026):

Assays:
A. baumannii = assay: MIC determination, broth micro dilution; format: cell-based, Acinetobacter baumannii; details: A. baumannii AB-1, antibiotic alone; for MIC: Acinetobacter baumannii, read-out: MIC of antibiotic without 2,6-DAC
Description: (§1) MIC values were determined using a broth micro dilution method. Bacteria cells were grown overnight at 37° C. in MHB to a mid-log phase (OD600 between 0.4-0.5 for each organism) and diluted in MHB to 10^5 CFU/mL. […] 50 μL of the 1-5×10^5 CFU/mL bacterial cultures (final concentration) was aliquoted into 96-well microtiter plates and mixed with 50 μL of two-fold dilutions of the polymer or antibiotics and incubated for 16-18 h at 37° C. with shaking at 200 rpm.
(§2) 2,6-DAC was screened as a potentiating agent for synergistic combinations with antibiotics against both A. baumannii AB-1 and MRSA USA300. Before the synergy tests, the MIC values of antibiotics were tested against MDR A. baumannii AB-1 and MRSA USA300 by following the MIC determination protocol in Example 4. Then, the synergy of 2,6-DAC with antibiotics was determined.

A. baumannii AB-1 [1] = assay: Checkerboard synergy assay of 2,6-DAC with antibiotics; format: cell-based, Acinetobacter baumannii; details: for MIC of antibiotic +16 μg/mL 2,6-DAC / MIC of antibiotic +32 μg/mL 2,6-DAC: A. baumannii AB-1 (MDR); for Synergy with 2,6-DAC (in words) / MIC, antibiotic in combination: A. baumannii AB-1; for MIC, antibiotic in combination: antibiotic concentration in combination with 2,6-DAC (8 μg/mL)
Description: as §2
(§3) Synergy was measured by time killing assay and checkerboard assay. Time killing assay was performed by following the protocol in Example 4. Checkerboard susceptibility assays to measure combinations of antimicrobials were performed in MHB at 37° C. as previously described (K. R. V. Thappeta et al., ACS Infect. Dis. 2020, 6, 1228-1237; and Z. Si et al., Angew. Chem. Int. Ed. 2020, 59, 6819-6826). The fractional inhibitory concentration (FIC) indices were calculated according to the following formula: […]

MRSA = assay: MIC determination, broth micro dilution; format: cell-based; details: MRSA USA300; for MIC: Staphylococcus aureus, read-out: MIC of antibiotic alone / without 2,6-DAC
Description: as §1, §2

MRSA USA300 = assay: Checkerboard synergy assay of 2,6-DAC with antibiotics; format: cell-based; details: for MIC, antibiotic in combination: antibiotic concentration in combination with 2,6-DAC
Description: as §2, §3

A. baumannii AB-1 [2] = assay: Time killing assay; format: cell-based, Acinetobacter baumannii; details: for Killing of bacteria by single agent (in words): sub-inhibitory concentration, alone, 24 h
Description: The plates were sealed and incubated at 37° C. with shaking at 200 rpm.
At 0, 0.5, 1, 2, 3, 5, and 24 h post-inoculation, each well was thoroughly mixed with a multi-channel pipette and 20 μL of sample was removed, serially diluted in sterile PBS, plated on LB agar plates, and incubated at 37° C. for 12 h. Colonies were counted to determine the CFU/mL at each time point.
as §3

| Compound | MIC (A. baumannii) | MIC of antibiotic +16 μg/mL 2,6-DAC (A. baumannii AB-1 [1]) | MIC of antibiotic +32 μg/mL 2,6-DAC (A. baumannii AB-1 [1]) | MIC (MRSA) | Synergy with 2,6-DAC (in words) (MRSA USA300) | other results |
| --- | --- | --- | --- | --- | --- | --- |
| C[C@@H](O)[C@H]1C(=O)N2C(C(=O)O)=C(SCCN=CN)C[C@H]12 [Imipenem] | 64 µg/mL | 8 µg/mL | 1 µg/mL | – | – | – |
| C[C@@H](O)[C@H]1C(=O)N2C(C(=O)O)=C(S[C@@H]3CN[C@H](C(=O)N(C)C)C3)[C@H](C)[C@H]12 [Meropenem] | 64 µg/mL | 4 µg/mL | 1 µg/mL | 1 µg/mL | – | MIC, antibiotic in combination (MRSA USA300): 0.5 µg/mL |
| CC1(C)S[C@@H]2[C@H](NC(=O)[C@H](N)c3ccc(O)cc3)C(=O)N2[C@H]1C(=O)O [Amoxicillin] | > 128 µg/mL | 128 µg/mL | 16 µg/mL | – | – | – |
| Colistin | – | – | – | – | no synergy | MIC of antibiotic alone / without 2,6-DAC (MRSA): 50 µg/mL |
| Polymyxin B | – | – | – | – | no synergy | MIC of antibiotic alone / without 2,6-DAC (MRSA): 32 µg/mL |
| O=C(O)c1cn(C2CC2)c2cc(N3CCNCC3)c(F)cc2c1=O [Ciprofloxacin] | – | – | – | 8 µg/mL | no synergy | – |
| C[C@@H](O)[C@H]1C(=O)N2C(C(=O)O)=C(S[C@@H]3CN[C@H](CNS(N)(=O)=O)C3)[C@H](C)[C@H]12 [Doripenem] | 32 µg/mL | 4 µg/mL | ≤2 µg/mL | – | – | – |
| COc1cc(Cc2cnc(N)nc2N)cc(OC)c1OC [Trimethoprim] | – | – | – | – | no synergy | – |
| CC[C@H]1OC(=O)[C@H](C)[C@@H](O[C@H]2C[C@@](C)(OC)[C@@H](O)[C@H](C)O2)[C@H](C)[C@@H](O[C@@H]2O[C@H](C)C[C@H](N(C)C)[C@H]2O)[C@](C)(O)C[C@@H](C)C(=O)[C@H](C)[C@@H](O)[C@]1(C)O [Erythromycin] | > 128 µg/mL | 64 µg/mL | 4 µg/mL | – | – | – |
| NC[C@H]1O[C@H](O[C@H]2[C@H](O)[C@@H](O[C@H]3O[C@H](CO)[C@@H](O)[C@H](N)[C@H]3O)[C@H](N)C[C@@H]2N)[C@H](N)C[C@@H]1O [Tobramycin] | > 128 µg/mL | – | – | 1 µg/mL | – | MIC of antibiotic without 2,6-DAC (A. baumannii): >128 µg/mL; Reduction, combination with 2,6-DAC (A. baumannii AB-1 [2]; 2,6-DAC 0.5×MIC + tobramycin 0.002×MIC): 2 log10; Killing of bacteria by single agent (in words) (A. baumannii AB-1 [2]): no killing of bacteria; Synergy with 2,6-DAC (in words) (A. baumannii AB-1 [1]): synergistic activity; MIC, antibiotic in combination (A. baumannii AB-1 [1]): 2 µg/mL; MIC, antibiotic in combination (MRSA USA300): 0.25 µg/mL |
| C[C@@H](O)[C@H]1C(=O)N2C(C(=O)O)=C(S[C@@H]3CN[C@H](C(=O)Nc4cccc(C(=O)O)c4)C3)[C@H](C)[C@H]12 [Ertapenem] | > 128 µg/mL | 4 µg/mL | 2 µg/mL | – | – | – |
| C[C@]1(Cn2ccnn2)[C@H](C(=O)O)N2C(=O)C[C@H]2S1(=O)=O [Tazobactam] | 64 µg/mL | – | – | – | – | Bactericidal efficacy, combination with 2,6-DAC (A. baumannii AB-1 [2]; 2,6-DAC 0.5×MIC + tazobactam 0.06×MIC): 4 log10; Killing of bacteria by single agent (in words) (A. baumannii AB-1 [2]): no killing of bacteria; Synergy with 2,6-DAC (in words) (A. baumannii AB-1 [1]): synergistic activity; MIC, antibiotic in combination (A. baumannii AB-1 [1]): 16 µg/mL |
| CC(=O)OCC1=C(C(=O)O)N2C(=O)[C@@H](NC(=O)Cc3cccs3)[C@H]2SC1 [Cephalothins] | – | 128 µg/mL | 2 µg/mL | – | – | MIC of antibiotic without 2,6-DAC (A. baumannii): >128 µg/mL |
| CC[C@H]1OC(=O)[C@H](C)[C@@H](O[C@H]2C[C@@](C)(OC)[C@@H](O)[C@H](C)O2)[C@H](C)[C@@H](O[C@@H]2O[C@H](C)C[C@H](N(C)C)[C@H]2O)[C@](C)(O)C[C@@H](C)CN(C)[C@H](C)[C@@H](O)[C@]1(C)O [Azithromycin] | 128 µg/mL | 64 µg/mL | 1 µg/mL | – | – | – |
| CO[C@@]1(NC(=O)Cc2cccs2)C(=O)N2C(C(=O)O)=C(COC(N)=O)CS[C@@H]21 [Cefoxitin] | > 128 µg/mL | 128 µg/mL | 8 µg/mL | – | – | – |
| CC(C)(O/N=C(\C(=O)N[C@@H]1C(=O)N2C(C(=O)[O-])=C(C[n+]3ccccc3)CS[C@H]12)c1csc(N)n1)C(=O)O [Ceftazidime] | > 128 µg/mL | 128 µg/mL | 2 µg/mL | 16 µg/mL | no synergy | – |
| CC1(C)S[C@@H]2[C@H](NC(=O)[C@H](N)c3ccccc3)C(=O)N2[C@H]1C(=O)O [Ampicillin] | – | – | – | 4 µg/mL | – | MIC, antibiotic in combination (MRSA USA300): 2 µg/mL |
| CCN1CCN(C(=O)N[C@@H](C(=O)N[C@@H]2C(=O)N3[C@@H]2SC(C)(C)[C@@H]3C(=O)O)c2ccccc2)C(=O)C1=O [Piperacillin] | – | – | – | 4 µg/mL | no synergy | – |
| NCC[C@H](O)C(=O)N[C@@H]1C[C@H](N)[C@@H](O[C@H]2O[C@H](CN)[C@@H](O)[C@H](O)[C@H]2O)[C@H](O)[C@H]1O[C@H]1O[C@H](CO)[C@@H](O)[C@H](N)[C@H]1O [Amikacin] | > 128 µg/mL | – | – | 1.56 µg/mL | no synergy | MIC of antibiotic without 2,6-DAC (A. baumannii): >128 µg/mL; Bactericidal efficacy, combination with 2,6-DAC (A. baumannii AB-1 [2]; 2,6-DAC 0.5×MIC + amikacin 0.002×MIC): 4 log10; Killing of bacteria by single agent (in words) (A. baumannii AB-1 [2]): no killing of bacteria; Synergy with 2,6-DAC (in words) (A. baumannii AB-1 [1]): synergistic activity; MIC, antibiotic in combination (A. baumannii AB-1 [1]): 2 µg/mL |
| Ramoplanin | – | 128 µg/mL | 2 µg/mL | – | – | MIC of antibiotic without 2,6-DAC (A. baumannii): >128 µg/mL |
| CC1(C)S[C@@H]2[C@H](NC(=O)C(C(=O)O)c3ccccc3)C(=O)N2[C@H]1C(=O)O (stereo partly drawn) [Carbenicillin] | – | – | – | 8 µg/mL | – | MIC, antibiotic in combination (MRSA USA300): 2 µg/mL |
| CC1COc2c(N3CCN(C)CC3)c(F)cc3c(=O)c(C(=O)O)cn1c23 (stereo not drawn) [Ofloxacin] | 8 µg/mL | 8 µg/mL | 4 µg/mL | – | – | – |
| CO/N=C(\C(=O)N[C@@H]1C(=O)N2C(C(=O)O)=C(CSc3nc(=O)c(=O)[nH]n3C)CS[C@H]12)c1csc(N)n1 [Ceftriaxone] | > 128 µg/mL | 128 µg/mL | 2 µg/mL | 16 µg/mL | no synergy | – |
| O=C(N[C@H](CO)[C@H](O)c1ccc([N+](=O)[O-])cc1)C(Cl)Cl [Chloramphenicol] | – | – | – | 4 µg/mL | no synergy | – |
| C[C@H]1COc2c(N3CCN(C)CC3)c(F)cc3c(=O)c(C(=O)O)cn1c23 [Levofloxacin] | 4 µg/mL | 2 µg/mL | ≤1 µg/mL | – | – | – |
